Test results published in the supplement of paper PMC10307832.

What was measured:
Experiment in all cases: relative viability (nuclei count vs DMSO), 5 days (fraction); higher = more cells survive
[1] = compound: CC(=O)c1c(C)c2cnc(Nc3ccc(N4CCNCC4)cn3)nc2n(C2CCCC2)c1=O [Palbociclib] + CCNC(=O)c1noc(-c2cc(C(C)C)c(O)cc2O)c1-c1ccc(CN2CCOCC2)cc1 [Luminespib] (partner 0.01 µM)
Method in brief: (§1)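 Relative viability divides the nuclei count in treated wells by that in vehicle wells. Lung cancer cell lines were seeded in 1536-well plates, dosed by pin tool the next day, and fixed and stained after 5 days in one step with final 0.05% Triton X-100, 1% formaldehyde and 1 ug/ml Hoechst. Dosing was a single drug or a fixed anchor-drug dose plus five library-drug doses (not always all listed) in √10 steps, and values are medians of duplicate plates imaged at 4×.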

[2] = compound: CC(=O)c1c(C)c2cnc(Nc3ccc(N4CCNCC4)cn3)nc2n(C2CCCC2)c1=O [Palbociclib] + Cc1nc(Nc2ncc(C(=O)Nc3c(C)cccc3Cl)s2)cc(N2CCN(CCO)CC2)n1 [Dasatinib] (partner 0.075 µM)
Method in brief: as §1

[3] = compound: CC(=O)c1c(C)c2cnc(Nc3ccc(N4CCNCC4)cn3)nc2n(C2CCCC2)c1=O [Palbociclib] + O=C(c1cc(Cc2n[nH]c(=O)c3ccccc23)ccc1F)N1CCN(C(=O)C2CC2)CC1 [Olaparib] (partner 8 µM)
Method in brief: as §1

Cell Line	relative viability ([1]; first compound 0.01 µM)	relative viability ([1]; first compound 0.03162 µM)	relative viability ([1]; first compound 0.1 µM)	relative viability ([1]; first compound 0.3162 µM)	relative viability ([1]; first compound 1 µM)	relative viability ([2]; first compound 0.01 µM)	relative viability ([2]; first compound 0.03162 µM)	relative viability ([2]; first compound 0.1 µM)	relative viability ([2]; first compound 0.3162 µM)	relative viability ([2]; first compound 1 µM)	relative viability ([3]; first compound 0.01 µM)	relative viability ([3]; first compound 0.03162 µM)	relative viability ([3]; first compound 0.1 µM)	relative viability ([3]; first compound 0.3162 µM)	relative viability ([3]; first compound 1 µM)
NCI-H1563	0.479	0.444	0.432	0.577	0.489	0.456	0.44	0.484	0.471	0.429	–	–	–	–	–
SK-LU-1	0.218	0.177	0.222	0.223	0.207	0.183	0.157	0.147	0.133	0.161	0.51	0.425	0.428	0.371	0.263
EPLC-272H	0.225	–	0.346	0.518	0.379	0.328	–	0.345	0.249	0.198	0.779	0.807	0.681	0.615	0.313
NCI-H2342	0.719	0.757	0.575	0.718	0.549	0.324	0.302	0.306	0.301	0.314	0.497	0.504	0.375	0.422	0.419
ABC-1	0.625	0.521	0.423	0.459	0.949	0.546	0.537	0.493	0.457	0.377	0.89	0.757	0.602	1.04	0.898
LCLC-97TM1	0.666	0.702	0.684	0.486	0.281	0.694	0.572	0.738	0.585	0.329	0.326	–	0.308	0.311	0.262
SW 900	0.198	–	0.163	0.182	0.171	0.641	–	0.543	0.479	0.46	0.914	–	0.975	0.865	0.725
NCI-H661	0.868	0.789	0.597	0.523	0.416	0.901	0.793	0.476	0.533	0.435	0.731	0.636	0.583	0.467	0.44
PC-3 [JPC-3]	0.708	0.743	0.649	0.661	0.53	1.06	0.758	0.936	0.801	0.566	1.16	0.903	0.816	0.872	0.526
SW 1573	0.385	0.207	0.257	0.208	0.265	0.495	0.321	0.354	0.394	0.277	0.463	0.452	0.454	0.359	0.291
NCI-H838	0.274	0.346	0.267	0.257	0.265	0.278	0.318	0.213	0.22	0.213	0.812	0.64	0.605	0.46	0.263
NCI-H2087	0.175	–	0.137	0.235	0.203	0.784	–	0.658	0.385	0.328	0.721	0.517	0.403	0.437	0.248
NCI-H1666	0.969	0.886	0.824	0.754	0.542	0.874	0.644	0.683	0.583	0.477	0.769	0.708	0.705	0.664	0.708
HCC-366	–	–	–	–	–	0.611	–	0.605	0.444	0.174	0.376	–	0.384	0.335	0.215
NCI-H1299	–	–	–	–	–	–	–	–	–	–	0.925	0.924	0.886	0.79	0.65
NCI-H1437	1.16	1.07	0.961	0.89	0.666	0.382	0.344	0.425	0.34	0.231	0.64	0.599	0.564	0.489	0.369
HARA	0.65	–	0.447	0.514	0.28	0.27	–	0.24	0.193	0.149	0.673	0.596	0.524	0.852	0.344
H3255	0.925	0.91	0.65	0.587	0.464	0.347	0.386	0.338	0.322	0.277	0.646	0.547	0.458	0.493	0.373
EMC-BAC-2	1.19	1.15	0.952	0.979	0.848	0.3	0.258	0.302	0.32	0.256	0.511	0.48	0.506	0.51	0.448
COR-L 105	0.689	0.814	0.596	0.475	0.536	0.339	0.312	0.274	0.326	0.253	0.711	0.552	0.564	0.475	0.432
UMC-11	1.04	0.819	0.69	0.452	0.285	0.491	0.395	0.346	0.328	0.232	0.332	0.375	0.341	0.298	0.136
NCI-H1792	0.558	0.498	0.288	0.327	0.371	0.848	0.727	0.63	0.551	0.468	0.476	0.266	0.384	0.348	0.222
RERF-LC-KJ	1.4	1.17	0.937	1.3	1.48	0.832	0.802	0.717	0.852	0.922	0.896	0.83	0.919	0.942	0.821
EKVX	0.856	0.745	0.919	0.841	0.605	0.467	0.444	0.502	0.455	0.372	0.915	–	0.647	0.608	0.438
NCI-H358	0.325	–	0.176	0.308	0.134	0.156	0.179	0.101	0.0972	0.0795	0.571	0.486	0.452	0.292	0.136

Cell Line	relative viability ([1]; first compound 0.01 µM)	relative viability ([1]; first compound 0.03162 µM)	relative viability ([1]; first compound 0.1 µM)	relative viability ([1]; first compound 0.3162 µM)	relative viability ([1]; first compound 1 µM)	relative viability ([2]; first compound 0.01 µM)	relative viability ([2]; first compound 0.03162 µM)	relative viability ([2]; first compound 0.1 µM)	relative viability ([2]; first compound 0.3162 µM)	relative viability ([2]; first compound 1 µM)	relative viability ([3]; first compound 0.01 µM)	relative viability ([3]; first compound 0.03162 µM)	relative viability ([3]; first compound 0.1 µM)	relative viability ([3]; first compound 0.3162 µM)	relative viability ([3]; first compound 1 µM)
HCC-78	–	–	–	–	–	0.348	0.361	0.348	0.26	0.215	1.05	0.661	0.695	0.636	0.369
LU99A	0.254	0.201	0.232	0.251	0.2	0.506	0.428	0.353	0.344	0.379	0.24	–	0.281	0.26	0.271
NCI-H2009	1.04	0.897	0.817	0.701	0.519	0.272	0.212	0.187	0.223	0.159	0.691	0.617	0.545	0.54	0.366
NCI-H2405	0.818	0.893	0.613	0.843	0.534	0.207	0.212	0.226	0.212	0.208	0.842	0.841	0.765	0.682	0.527
201T	1.02	1.01	0.909	0.878	0.749	0.54	0.494	0.579	0.388	0.324	0.817	0.819	0.781	0.684	0.65
PC-14	0.141	–	0.151	0.127	0.176	0.324	0.223	0.207	0.164	0.115	0.31	0.296	0.311	0.214	0.176
NCI-H322M	0.699	0.729	0.647	0.657	0.475	0.278	0.216	0.207	0.209	0.198	0.762	0.709	0.702	0.599	0.445
HOP-62	0.905	0.844	0.91	0.716	0.675	0.704	–	0.57	0.525	0.463	0.319	–	0.618	0.399	0.452
NCI-H1755	0.266	0.297	0.451	0.479	0.284	0.381	0.373	0.371	0.399	0.279	0.875	0.841	0.812	0.788	0.664
HCC-44	0.933	1.01	1.02	1.35	1.11	–	–	–	–	–	0.945	0.952	1	0.965	1.01
LK-2	0.208	–	0.166	0.191	0.158	0.356	–	0.305	0.301	0.321	0.896	0.656	0.625	0.585	0.556
NCI-H1703	–	–	–	–	–	–	–	–	–	–	0.417	0.339	0.293	0.199	0.203
NCI-H2085	0.426	0.332	0.376	0.412	0.327	0.233	0.282	0.209	0.252	0.191	0.788	0.767	0.712	0.584	0.488
NCI-H647	0.0934	0.13	0.137	0.209	0.253	0.177	0.142	0.143	0.163	0.139	0.809	0.488	0.502	0.513	0.442
NCI-H1944	0.683	0.742	0.626	0.666	0.516	0.211	0.162	0.193	0.19	0.147	0.411	0.397	0.404	0.341	0.339
ChaGo-K-1	0.532	0.575	0.893	0.689	0.62	0.545	0.539	0.615	0.594	0.593	0.423	–	0.437	0.467	0.444
NCI-H522	1.2	–	1.19	1.19	1.18	0.896	0.658	0.809	0.922	0.914	0.642	0.612	0.689	0.678	0.616
LC-2-ad	0.944	–	0.856	0.8	0.535	0.459	–	0.541	0.446	0.325	0.744	0.71	0.688	0.642	0.553
HCC-827	0.398	0.539	0.582	0.609	0.532	0.296	0.234	0.311	0.264	0.288	0.62	0.573	0.477	0.563	0.443
HCC-15	0.267	–	0.378	0.502	0.418	0.622	–	0.516	0.598	0.439	0.788	–	0.626	0.651	0.598
NCI-H1793	0.17	–	0.243	0.193	0.2	0.409	–	0.359	0.342	0.221	1.03	0.628	0.832	0.81	0.501
NCI-H1734	0.251	0.182	0.193	0.197	0.17	0.461	0.365	0.393	0.296	0.254	0.616	0.596	0.566	0.494	0.407
A549	–	–	–	–	–	–	–	–	–	–	0.345	0.0522	0.282	0.3	0.231
IA-LM	–	–	–	–	–	–	–	–	–	–	0.755	0.643	0.548	0.474	0.268
